Laboratory results: patent US10253081B2, “Glucagon analogues” (Zealand Pharma A/S, priority 2012, dated 2019)
*1 amine or outer side, *2 acyl side, *3 side chain or, on linkers, in order; H or OH if unused. Where a SMILES comes first, the peptide text is derived from it. Side-chain parts run from the residue outwards. [ ]: non-standard residue; d: D form. The star is where a group is joined. γGlu = O=C(O)[C@H](CCC(=O)[*:2])N[*:1]; Palmitoyl = CCCCCCCCCCCCCCCC(=O)*; Aib = CC(C)(N)C(=O)O

Experiments:
Format in all cases: cell-based
[1] = target: T1, human glucagon receptor (Glucagon-R) (Homo sapiens, UniProt P47871); experiment: Glucagon receptor efficacy assay (cAMP AlphaScreen, CHO cells); conditions: Table 1B; same protocol, different laboratory; read-out: EC50 hGCGR CHO-K1
T1 construct: expressed in transfected cells
T1 sequence (P47871 26-477): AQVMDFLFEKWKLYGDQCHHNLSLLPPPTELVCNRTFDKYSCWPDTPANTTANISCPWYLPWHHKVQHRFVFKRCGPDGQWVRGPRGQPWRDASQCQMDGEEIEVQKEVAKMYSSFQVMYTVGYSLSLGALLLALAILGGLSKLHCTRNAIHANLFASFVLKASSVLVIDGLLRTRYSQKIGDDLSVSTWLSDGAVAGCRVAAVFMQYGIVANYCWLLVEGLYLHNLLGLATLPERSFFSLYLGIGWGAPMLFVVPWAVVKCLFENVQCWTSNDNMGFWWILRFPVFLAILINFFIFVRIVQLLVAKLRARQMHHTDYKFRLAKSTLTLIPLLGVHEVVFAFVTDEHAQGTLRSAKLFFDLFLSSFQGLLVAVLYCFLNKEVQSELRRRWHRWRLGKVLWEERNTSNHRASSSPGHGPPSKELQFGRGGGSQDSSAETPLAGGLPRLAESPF
From the text: (§1) The cDNA encoding either the human glucagon receptor (Glucagon-R) (primary accession number P47871) or the human glucagon-like peptide 1 receptor (GLP-1R) (primary accession number P43220) were synthesized and cloned into a mammalian expression vector containing a Zeocin resistance marker.
(§2) The mammalian expression vectors encoding the Glucagon-R or the GLP-1-R were transfected into Chinese hamster ovary (CHO) cells by the Attractene method method. Stably expressing clones were obtained by Zeocin selection (250 μg/mL) upon limited dilution of cells resistant to the selection pressure. Glucagon-R and GLP-1-R cell clones expressing were picked, propagated and tested in the Glucagon-R and GLP-1-R efficacy assays as described below. One Glucagon-R expressing clone and one GLP-1-R expressing clone were chosen for compound profiling.
(§3) CHO cells expressing the human Glucagon-R, or human GLP-1-R were seeded 24 hours prior to the assay at 30,000 cells per well in 96-well microtiter plates in culture in 100 μl growth medium. On the day of analysis, growth medium was removed and the cells were washed once with 200 μl of assay buffer (Krebs-Ringer-buffer—KRBH). The buffer was removed and the cells were incubated for 15 min at room temperature in 10 μl KRBH (KRBH+10 mM HEPES, 5 mM NaHCO3, 0.1% (V/V) BSA) with 0.1 mM IBMX in deionized water containing increasing concentrations of test peptides. The reaction was stopped by the addition of lysis buffer (0.1% w/v BSA, 5 mM HEPES, 0.3% v/v Tween-20). After cell lysis for 10 min at room temperature, lysates were transferred to 384-well plates and 10 μl of acceptor/donorbead mixture as contained in the AlphaScreen™ cAMP Functional Assay Kit was added. After one hour of incubation at room temperature in the dark, the cAMP content was determined applying the AlphaScreen™ cAMP Functional Assay Kit from Perkin-Elmer according to manufacturer instructions. EC50 and relative efficacies compared to reference compounds (glucagon and GLP-1) were calculated applying computer aided curve fitting. The GLP-1/glucagon ratio is calculated as defined earlier.

[2] = target: T2, human glucagon-like peptide 1 receptor (GLP-1R) (Homo sapiens, UniProt P43220); experiment: GLP-1 receptor efficacy assay (cAMP AlphaScreen, CHO cells); conditions: Table 1B; for Ratio GLP-1/Glucagon: EC50 [GLP-1R]/EC50 [Glucagon-R]; for EC50: same protocol, different laboratory, read-out: EC50 hGLP-1R CHO-K1
T2 construct: expressed in transfected cells
T2 sequence (P43220 24-463): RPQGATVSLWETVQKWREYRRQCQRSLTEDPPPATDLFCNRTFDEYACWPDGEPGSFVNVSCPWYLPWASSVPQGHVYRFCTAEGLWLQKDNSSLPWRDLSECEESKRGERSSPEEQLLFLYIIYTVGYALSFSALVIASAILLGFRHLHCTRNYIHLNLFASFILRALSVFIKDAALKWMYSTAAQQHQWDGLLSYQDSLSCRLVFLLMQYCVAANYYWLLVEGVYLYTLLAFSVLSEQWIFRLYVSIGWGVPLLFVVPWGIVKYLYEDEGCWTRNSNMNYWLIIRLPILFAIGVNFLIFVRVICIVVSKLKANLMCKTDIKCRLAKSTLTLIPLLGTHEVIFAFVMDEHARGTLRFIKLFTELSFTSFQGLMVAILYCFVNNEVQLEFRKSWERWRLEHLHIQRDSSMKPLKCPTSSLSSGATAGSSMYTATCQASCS
From the text: as §1, §2, §3

[3] = target: T3, endogenous GLP-1 receptors (Mus musculus, UniProt O35659); experiment: Agonistic activity on endogenous GLP-1 receptor (cAMP, murine insulinoma cell line); conditions: intracellular cAMP, 15 minutes at 26° C.; read-out: EC50 GLP-1R (murine insulinoma cells)
T3 construct: Agonistic activity of the test compounds on endogenous GLP-1 receptors; endogenous in cells
T3 sequence (O35659 22-463): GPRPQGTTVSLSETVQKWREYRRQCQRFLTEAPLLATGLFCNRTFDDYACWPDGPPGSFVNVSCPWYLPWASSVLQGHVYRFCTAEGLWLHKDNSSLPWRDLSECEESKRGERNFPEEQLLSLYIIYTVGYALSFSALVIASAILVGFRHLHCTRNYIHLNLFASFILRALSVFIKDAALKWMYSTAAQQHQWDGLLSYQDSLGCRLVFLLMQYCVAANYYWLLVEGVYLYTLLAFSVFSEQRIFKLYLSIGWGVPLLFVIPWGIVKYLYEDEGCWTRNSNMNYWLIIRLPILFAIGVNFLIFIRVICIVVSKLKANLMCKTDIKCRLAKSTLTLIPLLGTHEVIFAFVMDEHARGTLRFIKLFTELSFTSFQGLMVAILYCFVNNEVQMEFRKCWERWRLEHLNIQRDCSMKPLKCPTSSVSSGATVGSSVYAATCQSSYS
Procedure: Agonistic activity of the test compounds on endogenous GLP-1 receptors was determined using a murine insulinoma cell line. Intracellular cAMP was used an indicator of receptor activation.
Cells were cultured for 24 h at a density of 10,000 cells/well in a 384-well plate. Medium was removed and 10 μL KRBH buffer (NaCl 130 mM, KCl 3.6 mM, NaH2PO4 0.5 mM, MgSO4 0.5 mM, CaCl2) 1.5 mM) containing test compound or GLP-1 (at increasing concentrations from […] to 100 nM) or solvent control (0.1% (v/v) DMSO) was added to the wells for 15 minutes at a temperature of 26° C.
The cellular cAMP content is measured using the AlphaScreen cAMP Functional Assay Kit (Perkin Elmer). Measurement was performed using the Envision (PerkinElmer) according to manufacturer's recommendations.
All measurements were performed in quadruplicate.
Results were converted into cAMP concentrations using a cAMP standard curve prepared in KRBH buffer containing 0.1% (v/v) DMSO. The resulting cAMP curves were plotted as absolute cAMP concentrations (nM) over log (test compound concentration) and analyzed using the curve fitting program XLfit.
Parameters calculated to describe the both the potency as well as the agonistic activity of each test compound on the endogenous GLP-1 receptors were:
pEC50 (negative logarithmic value of EC50, a concentration resulting in a half-maximal elevation of cAMP levels, reflecting the potency of the test compound);
Percent control (% CTL)(% cAMP elevation for each test compound concentration normalized based on the GLP-1-induced maximum cAMP response (100% CTL)).

[4] = target: T4, endogenous glucagon receptor (Rattus norvegicus, UniProt P30082); experiment: Agonistic activity on endogenous glucagon receptor (glycogen synthesis rate in primary rat hepatocytes); conditions: inhibition of glycogen synthesis rate, 3 hours, read-out: EC50 GLP-1R Rat hepat.
T4 construct: Agonistic activity of the test compounds on endogenous glucagon receptor; endogenous in cells; host or cells: primary rat hepatocytes
T4 sequence (P30082 27-485): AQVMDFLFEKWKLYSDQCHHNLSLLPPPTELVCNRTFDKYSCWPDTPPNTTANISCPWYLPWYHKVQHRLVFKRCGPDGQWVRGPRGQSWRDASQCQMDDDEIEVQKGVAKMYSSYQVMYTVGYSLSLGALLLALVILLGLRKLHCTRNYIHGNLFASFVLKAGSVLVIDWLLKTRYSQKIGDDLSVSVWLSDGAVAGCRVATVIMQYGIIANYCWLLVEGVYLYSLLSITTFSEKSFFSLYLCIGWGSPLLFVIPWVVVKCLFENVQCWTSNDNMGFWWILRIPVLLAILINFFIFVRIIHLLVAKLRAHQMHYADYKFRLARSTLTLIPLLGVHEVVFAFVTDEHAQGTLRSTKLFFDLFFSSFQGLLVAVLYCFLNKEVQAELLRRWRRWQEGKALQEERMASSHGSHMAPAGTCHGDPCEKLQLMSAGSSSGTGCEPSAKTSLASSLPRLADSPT
Procedure: Agonistic activity of the test compounds on endogenous glucagon receptor was determined by measuring their effect on rate of glycogen synthesis in primary rat hepatocytes. Upon activation of the glucagon receptor, an inhibition of the glycogen synthesis rate is expected. Rate of glycogen synthesis was determined by counting the amount of radioactively labeled glucose incorporated into the cellular glycogen stores in a defined period of time.
Primary rat hepatocytes were cultured at a density of 40,000 cells/well in a 24-well plate for 24 hours at 37° C. and 5% CO2.
Medium was discarded and the cells washed with PBS. 180 μL of KRBH-based buffer containing 0.1% BSA and glucose at a concentration of 22.5 mM was then added to the wells, followed by test compound and 40 μCi/ml D-[U14C] glucose (20 μL each). Incubation was continued for 3 hours.
At the end of the incubation period, the incubation buffer was aspirated and cells washed once with ice-cold PBS before lysis by incubation for 30 min at room temperature with 100 μL 1 mol/l NaOH.
Cell lysates were transferred to 96-well filter plates and glycogen precipitated by incubating the filter-plates for 120 min at 4° C. followed by washing the filter plates 4 times with ice-cold ethanol (70%). The resulting precipitates were filtered to dryness and the amount of incorporated ^14C-glucose determined by using a Topcount scintillation counter according to manufacturer's recommendations.
Wells with vehicle controls (0.1% (v/v) DMSO in KRBH buffer) were included as reference for non-inhibited glycogen synthesis (100% CTL). Wells without added D-[U^14C] glucose were included as controls for non-specific background signal (subtracted from all values). Endogenous glucagon peptide was used as a positive control.
All treatments were performed at least in triplicates.
Parameters calculated to describe the both the potency as well as the agonistic activity of each test compound on the endogenous glucagon receptor are pEC50 and % CTL. % CTL is determined by calculating the percentage of CPM/well in the presence of the test compound compared to the CPM/well of the vehicle control after subtracting the background CPM/well: [CPM/well(basal)−CPM/well(sample)]*100/[CPM/well(basal)−CPM/well(control)]
An activator of the glucagon receptor will result in an inhibition of the glycogen synthesis rate and will give % CTL values between 0% CTL (complete inhibition) and 100% CTL (no observable inhibition).
The resulting activity curves were plotted as absolute counts (unit: cpm/sample) over log (test compound concentration) and analyzed using the curve fitting program XLfit.
pEC50 (negative logarithmic value of EC50) reflects the potency of the test compound.
The terms EC50 and pEC50 quoted in relation to GLP-1R activation could equally be regarded as IC50 and pIC50 in relation to glycogen synthesis.

SMILES | EC50 [1] | Ratio GLP-1/Glucagon [2] | EC50 [2] | EC50 [3] | EC50 [4]
CCCCCCCCCCCCCCCC(=O)N[C@@H](CCC(=O)NCCCC[C@H](NC(=O)[C@H](CO)NC(=O)[C@H](CCC(=O)O)NC(=O)[C@H](CC(C)C)NC(=O)[C@H](Cc1ccc(O)cc1)NC(=O)[C@H](CCCCN)NC(=O)[C@H](CO)NC(=O)[C@H](Cc1ccc(O)cc1)NC(=O)[C@H](CC(=O)O)NC(=O)[C@H](CO)NC(=O)[C@@H](NC(=O)[C@H](Cc1ccccc1)NC(=O)[C@@H](NC(=O)CNC(=O)[C@H](CCC(N)=O)NC(=O)C(C)(C)NC(=O)[C@@H](N)Cc1c[nH]cn1)[C@@H](C)O)[C@@H](C)O)C(=O)N[C@@H](C)C(=O)N[C@@H](C)C(=O)N[C@@H](Cc1c[nH]cn1)C(=O)N[C@@H](CC(=O)O)C(=O)N[C@@H](Cc1ccccc1)C(=O)N[C@H](C(=O)N[C@@H](CCC(=O)O)C(=O)N[C@@H](Cc1c[nH]c2ccccc12)C(=O)N[C@@H](CC(C)C)C(=O)N[C@@H](CCC(=O)O)C(=O)N[C@@H](CO)C(=O)N[C@@H](C)C(N)=O)C(C)C)C(=O)O [Compound 23, H-H-Aib-QGTFTSDYSKYLES-K(Hexadecanoyl-isoGlu)-AAHDFVEWLESA-NH2] (H-H[Aib]QGTFTSDYSKYLESK([γGlu-Palmitoyl])AAHDFVEWLESA-NH2) | 0.25 nM | 0.52 | 0.13 nM | 0.31 nM | 1.32 nM
CCCCCCCCCCCCCCCC(=O)N[C@@H](CCC(=O)NCCCC[C@H](NC(=O)[C@H](CO)NC(=O)[C@H](CCC(=O)O)NC(=O)[C@H](CC(C)C)NC(=O)[C@H](Cc1ccc(O)cc1)NC(=O)[C@H](CCCCN)NC(=O)[C@H](CO)NC(=O)[C@H](Cc1ccc(O)cc1)NC(=O)[C@H](CC(=O)O)NC(=O)[C@H](CO)NC(=O)[C@@H](NC(=O)[C@H](Cc1ccccc1)NC(=O)[C@@H](NC(=O)CNC(=O)[C@H](CCC(N)=O)NC(=O)C(C)(C)NC(=O)[C@@H](N)Cc1c[nH]cn1)[C@@H](C)O)[C@@H](C)O)C(=O)N[C@@H](C)C(=O)N[C@@H](C)C(=O)N[C@@H](CCC(=O)O)C(=O)N[C@@H](CC(=O)O)C(=O)N[C@@H](Cc1ccccc1)C(=O)N[C@H](C(=O)N[C@@H](CCC(=O)O)C(=O)N[C@@H](Cc1c[nH]c2ccccc12)C(=O)N[C@@H](CC(C)C)C(=O)N[C@@H](CCC(=O)O)C(=O)N[C@@H](CO)C(=O)N[C@@H](C)C(N)=O)C(C)C)C(=O)O [Compound 24, H-H-Aib-QGTFTSDYSKYLES-K(Hexadecanoyl-isoGlu)-AAEDFVEWLESA-NH2] (H-H[Aib]QGTFTSDYSKYLESK([γGlu-Palmitoyl])AAEDFVEWLESA-NH2) | 0.92 nM | 0.12 | 0.11 nM | 0.33 nM | 6.15 nM
CCCCCCCCCCCCCCCC(=O)N[C@@H](CCC(=O)NCCCC[C@H](NC(=O)[C@H](CCC(=O)O)NC(=O)[C@H](CC(=O)O)NC(=O)[C@H](CC(C)C)NC(=O)[C@H](Cc1ccc(O)cc1)NC(=O)[C@H](CCCCN)NC(=O)[C@H](CO)NC(=O)[C@H](Cc1ccc(O)cc1)NC(=O)[C@H](CC(=O)O)NC(=O)[C@H](CO)NC(=O)[C@@H](NC(=O)[C@H](Cc1ccccc1)NC(=O)[C@@H](NC(=O)CNC(=O)[C@H](CCC(N)=O)NC(=O)[C@@H](CO)NC(=O)[C@@H](N)Cc1c[nH]cn1)[C@@H](C)O)[C@@H](C)O)C(=O)N[C@@H](C)C(=O)N[C@@H](C)C(=O)N[C@@H](CCCCN)C(=O)N[C@@H](CC(=O)O)C(=O)N[C@@H](Cc1ccccc1)C(=O)N[C@H](C(=O)N[C@@H](CCC(=O)O)C(=O)N[C@@H](Cc1c[nH]c2ccccc12)C(=O)N[C@@H](CC(C)C)C(=O)N[C@@H](CCC(=O)O)C(=O)N[C@@H](CO)C(=O)N[C@@H](C)C(N)=O)[C@@H](C)CC)C(=O)O [Compound 25, H-H-DSer-QGTFTSDYSKYLDE-K(Hexadecanoyl-isoGlu)-AAKDFIEWLESA-NH2] | 0.16 nM | 1.94 | 0.31 nM | 0.41 nM | 0.15 nM
